Results on eleven compounds are retold here after paper PMC4893628, “Chalcone-based Selective Inhibitors of a C4 Plant Key Enzyme as Novel Potential Herbicides” (Scientific Reports, 2016).

Where two headings read alike, the source gives them in different places.

For experiment [1], the target named is T1, F. pringlei PEPC (Flaveria pringlei, UniProt Q01647).
T1 construct: the full-length ppcA gene of PEPC from F. trinervia (EMBL-Bank X61304) and F. pringlei (EMBL-Bank Z48966) were cloned in pETEV16b; made in house; host or cells: Escherichia coli BL21-Gold(DE3)
T1 sequence (Q01647 1-967): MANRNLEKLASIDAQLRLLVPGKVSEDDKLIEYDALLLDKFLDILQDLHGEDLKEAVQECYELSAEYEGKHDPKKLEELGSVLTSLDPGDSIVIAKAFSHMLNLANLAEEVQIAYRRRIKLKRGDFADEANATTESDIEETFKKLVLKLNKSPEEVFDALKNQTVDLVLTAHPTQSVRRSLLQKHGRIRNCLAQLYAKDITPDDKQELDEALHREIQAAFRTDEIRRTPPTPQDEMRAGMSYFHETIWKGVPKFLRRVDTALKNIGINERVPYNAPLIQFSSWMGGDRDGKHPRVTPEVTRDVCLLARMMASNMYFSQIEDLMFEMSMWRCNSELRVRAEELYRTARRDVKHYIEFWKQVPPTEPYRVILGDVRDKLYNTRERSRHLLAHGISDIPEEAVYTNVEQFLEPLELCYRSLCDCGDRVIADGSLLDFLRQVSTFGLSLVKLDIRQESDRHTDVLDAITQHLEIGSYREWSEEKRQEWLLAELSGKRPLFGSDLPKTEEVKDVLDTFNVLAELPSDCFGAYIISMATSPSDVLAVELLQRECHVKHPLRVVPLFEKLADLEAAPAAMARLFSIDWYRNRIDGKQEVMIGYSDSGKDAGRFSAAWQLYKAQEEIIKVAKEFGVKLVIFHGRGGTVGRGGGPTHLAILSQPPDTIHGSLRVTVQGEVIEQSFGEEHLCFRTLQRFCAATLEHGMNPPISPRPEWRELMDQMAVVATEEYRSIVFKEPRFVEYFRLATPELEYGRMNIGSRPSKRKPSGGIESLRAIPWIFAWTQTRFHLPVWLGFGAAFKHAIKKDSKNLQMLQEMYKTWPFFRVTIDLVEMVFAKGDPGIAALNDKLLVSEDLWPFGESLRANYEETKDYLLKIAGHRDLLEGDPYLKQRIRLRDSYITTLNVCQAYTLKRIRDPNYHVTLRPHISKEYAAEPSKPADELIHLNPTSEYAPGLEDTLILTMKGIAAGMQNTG
Nature of the experiment: PEPC coupled spectrophotometric assay, C3 PEPC. The experiment is classed as biochemical. Here is the method:
The IC50 values of small molecule compounds on F. pringlei and F. trinervia PEPCs were determined using PEPC coupled spectrophotometric assay. The amount of NADH oxidized by NADH-malate dehydrogenase was measured by the decrease in absorbance at 340 nm in a Beckman DU-800 spectrophotometer, thus the value is in proportion to the corresponding substrate conversion of the enzyme. The reaction mixture included the PEPC enzymes (0.05 U), NADH (150 μM), malate dehydrogenase (2 U) and different concentration of compounds in the buffer containing 50 mM HEPES/KOH pH 7.5, 10 mM MgCl2, 10 mM KHCO3 in a final volume of 600 μl at 25 °C. The reactions were started by adding two folds of the Km value of PEP for each enzyme. The data were analyzed using GraFit (Erithacus Software, UK).

Experiment [2] deals with T2, wild-type C4 PEPC from F. trinervia (Flaveria trinervia, UniProt P30694).
T2 construct: the full-length ppcA gene of PEPC from F. trinervia (EMBL-Bank X61304); made in house; host or cells: Escherichia coli BL21(DE3)
T2 sequence (P30694 1-966): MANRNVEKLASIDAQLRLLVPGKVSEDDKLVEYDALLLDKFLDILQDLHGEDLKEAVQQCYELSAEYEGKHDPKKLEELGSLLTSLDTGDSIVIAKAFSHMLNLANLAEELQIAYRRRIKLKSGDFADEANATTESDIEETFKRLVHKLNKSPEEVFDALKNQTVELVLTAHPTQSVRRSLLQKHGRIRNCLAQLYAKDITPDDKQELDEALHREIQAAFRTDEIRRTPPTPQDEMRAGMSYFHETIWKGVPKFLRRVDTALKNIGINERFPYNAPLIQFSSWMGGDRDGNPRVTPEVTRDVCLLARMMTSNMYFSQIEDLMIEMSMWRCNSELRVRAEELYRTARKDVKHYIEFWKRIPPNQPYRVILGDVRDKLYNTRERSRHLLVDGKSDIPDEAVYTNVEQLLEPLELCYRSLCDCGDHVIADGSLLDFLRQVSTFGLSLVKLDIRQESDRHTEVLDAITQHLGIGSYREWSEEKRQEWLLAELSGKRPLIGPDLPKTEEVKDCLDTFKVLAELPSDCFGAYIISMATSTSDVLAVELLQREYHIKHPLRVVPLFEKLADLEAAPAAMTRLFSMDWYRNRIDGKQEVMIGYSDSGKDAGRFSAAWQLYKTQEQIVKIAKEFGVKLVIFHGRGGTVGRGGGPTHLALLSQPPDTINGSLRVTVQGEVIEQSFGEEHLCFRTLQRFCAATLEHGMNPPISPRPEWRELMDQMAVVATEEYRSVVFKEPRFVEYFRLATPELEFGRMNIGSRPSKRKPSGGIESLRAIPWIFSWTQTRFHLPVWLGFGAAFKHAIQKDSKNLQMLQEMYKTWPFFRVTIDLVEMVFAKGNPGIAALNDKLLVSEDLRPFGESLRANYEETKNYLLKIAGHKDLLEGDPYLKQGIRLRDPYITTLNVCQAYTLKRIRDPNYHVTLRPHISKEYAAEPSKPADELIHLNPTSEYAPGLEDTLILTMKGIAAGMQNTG
Nature of the experiment: Isothermal titration calorimetry, wild-type C4 PEPC. It counts as binding. The procedure:
(§1) The binding affinities between small molecule compounds and PEPC enzymes were measured using a MicroCal iTC200 calorimeter (GE Healthcare). 18 injections (2 μl each) of 200 μM compound were injected into a sample cell containing 20 uM PEPC at 25 °C. The buffer of the compounds and the enzymes contained 50 mM Tris/HCl pH 7.5, 150 mM NaCl, 10 mM MgCl2. The data were analyzed with one-site-binding fitting using Origin software (MicroCal Inc.) to calculate the dissociation constant (Kd) of the small molecule inhibitors.

Experiment [3] concerns the target C4 PEPC mutant G884R (Flaveria trinervia, UniProt P30694, G884R). Nature of the experiment: Isothermal titration calorimetry, mutant G884R. The experiment is classed as binding. Here is the method: as §1
Setting [4] is: read-out: IC50 F. pringlei PEPC.

Chain of C4 PEPC mutant G884R (P30694 whole entry G884R): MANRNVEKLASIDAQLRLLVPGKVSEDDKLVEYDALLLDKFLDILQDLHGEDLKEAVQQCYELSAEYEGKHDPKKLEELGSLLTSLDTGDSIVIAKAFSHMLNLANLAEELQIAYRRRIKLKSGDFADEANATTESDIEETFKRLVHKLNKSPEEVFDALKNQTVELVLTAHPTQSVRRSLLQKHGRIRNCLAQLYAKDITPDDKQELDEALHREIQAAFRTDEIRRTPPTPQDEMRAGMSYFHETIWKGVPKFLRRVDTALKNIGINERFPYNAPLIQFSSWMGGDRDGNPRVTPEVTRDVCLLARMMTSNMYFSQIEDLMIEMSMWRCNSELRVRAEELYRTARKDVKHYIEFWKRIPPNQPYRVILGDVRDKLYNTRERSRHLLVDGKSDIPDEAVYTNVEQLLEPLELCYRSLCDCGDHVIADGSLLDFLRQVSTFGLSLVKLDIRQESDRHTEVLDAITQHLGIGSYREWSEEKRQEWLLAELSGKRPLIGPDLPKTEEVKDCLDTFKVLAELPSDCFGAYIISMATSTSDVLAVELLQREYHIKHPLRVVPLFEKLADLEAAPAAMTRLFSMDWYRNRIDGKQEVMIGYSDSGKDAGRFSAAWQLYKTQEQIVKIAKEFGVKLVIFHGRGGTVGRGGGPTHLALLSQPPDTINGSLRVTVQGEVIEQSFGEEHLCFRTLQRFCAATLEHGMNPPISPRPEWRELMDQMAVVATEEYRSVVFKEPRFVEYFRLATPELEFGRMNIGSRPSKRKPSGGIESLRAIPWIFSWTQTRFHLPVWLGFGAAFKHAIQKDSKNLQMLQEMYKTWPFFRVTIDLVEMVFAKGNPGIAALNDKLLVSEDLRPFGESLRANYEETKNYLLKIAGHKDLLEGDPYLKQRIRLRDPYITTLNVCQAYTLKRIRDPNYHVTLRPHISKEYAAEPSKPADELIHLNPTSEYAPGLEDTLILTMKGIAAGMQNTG

Regarding `O=C(/C=C/c1ccccc1)c1ccccc1` [Compound 1, trans-Chalcone], half-maximal inhibition in experiment [1] (IC50 F. pringlei PEPC) (IC50) was put at 119 ± 4.6 µM. Turning to `O=C(/C=C/c1ccccc1)c1ccccc1O` [Compound 2, 2′-Hydroxychalcone], 76.3 ± 1.9 µM corresponded to half-maximal inhibition in experiment [1] (IC50 F. pringlei PEPC) (IC50). `O=C(/C=C/c1ccc(O)cc1)c1ccccc1O` [Compound 3, 2′,4-Dihydroxychalcone]: the IC50 in experiment [1] (setting [4]) is 64.2 ± 2.8 µM. On the same count and under the same terms, under `O=C(/C=C/c1ccccc1)c1ccc(O)cc1O` [Compound 4, 2′,4′-Dihydroxychalcone] stands 53 ± 1.1 µM; under `O=C(/C=C/c1ccccc1)c1cc(O)ccc1O` [Compound 5, 2′,5′-Dihydroxychalcone], 105 ± 4.6 µM. Regarding `O=C(/C=C/c1ccc(O)cc1)c1ccc(O)cc1O` [Compound 6, 2′,4′,4-Trihydroxychalcone], the IC50 in experiment [1] (IC50 F. pringlei PEPC) is 57.8 ± 1.1 µM. In the case of `O=C(/C=C/c1ccccc1O)c1ccc(O)cc1O` [Compound 7, 2′,4′,2-Trihydroxychalcone], in experiment [1] (setting [4]), the IC50 is 64.4 ± 1.1 µM. Turning to `O=C(/C=C/c1ccc(O)c(O)c1)c1ccc(O)cc1O` [Compound 8, 2′,4′,3,4-Tetrahydroxy-chalcone], the Kd was 0.38 µM in experiment [2] and 8.6 µM in experiment [3]. Take `O=C(/C=C/c1cc(O)c(O)c(O)c1)c1ccc(O)cc1O` [Compound 9, 2′,4′,3,4,5-Pentahydroxychalcone]: the Kd amounted to 0.46 µM in experiment [2] (ITC, wild-type (wtFt), no aspartate, read-out: Kd) and 4.8 µM in experiment [3]. With `O=C(/C=C/c1ccc(O)c(O)c1)c1c(O)cc(O)cc1O` [Compound 11, 2′,4′,6′,3,4-Pentahydroxy-chalcone], the IC50 in experiment [1] (setting [4]) was 8.2 ± 0.3 µM. `O=C(/C=C/c1ccc(O)c(O)c1)c1ccc(O)c(O)c1O` [Compound 12, 2′,3′,4′,3,4-Pentahydroxy-chalcone]: the IC50 in experiment [1] (IC50 F. pringlei PEPC) was determined as 26.8 ± 3.5 µM. For the same compound, the Kd in experiment [2] came out at 0.26 µM; in experiment [3], 5.4 µM. In experiment [2] (ITC), the “weaker Kd at 0.5 mM aspartate in comparison to no aspartate” value is ~ 5 fold.
